Assay results from patent US9040563B2, “Dual inhibitors of farnesyltransferase and geranylgeranyltransferase I” (H. Lee Moffitt Cancer Center and Research Institute, Inc., priority 2010, dated 2015).

Assays:
survivin = test: Western blot of survivin and PARP (apoptosis); assay type: cell-based; details: human cancer cells
Excerpt: (§1) Mammalian target of rapamycin (mTOR) is a serine/threonine phosphatidylinositol 3-kinase-related kinase responsible for cell growth, proliferation, cell survival, protein synthesis, and transcription. Alteration of the mTOR pathway, either through activation of oncogenes or inactivation of tumor suppressors, disrupts a signaling equilibrium and causes malignant transformation. Studies have shown that phosphorylated S6 (pS6) is related to mTOR pathway alterations, and is useful in determining PI3K-based cancer therapies (Aziz, et al. Phosphatidylinositol-3-Kinase as a Therapeutic Target in Melanoma. Clin Cancer Res. 2009, 15; 3029-3036). Two breast adenocarcinoma and a pancreatic carcinoma cell line were treated with indicated concentrations of FGTI-2734, GGTI-2417 or FTI-2153. Protein extracts were run on a Western Blot using antibody against pS6 (ser240/244) (Cell Signaling Technology, Inc., Danvers, Mass.). […] Antibodies used were HDJ-2 (Lab Vision Corporation, Fremont, Calif.), Rapt (Santa Cruz Biotechnology, Santa Cruz, Calif.), K-Ras (EMD4 Biosciences (Calbiochem), Gibbstown, N.J.), P27 (BD Biosciences, San Jose, Calif.), Actin (Sigma-Aldrich, St. Louis, Mo.), Survivin (Santa Cruz Biotechnology, Santa Cruz, Calif.), and PARP (Roche, Indianapolis, Ind.).

HDJ-2 farnesylation = test: Western blot of HDJ-2 farnesylation/processing (gel shift) in treated cells; assay type: cell-based; details: MiaPaca, MDA-MB-468 and MDA-MB-231 human cancer cells; FIG. 13
Procedure: The ability of FGTI-2734 to inhibit HDJ-2 farnesylation and Rap-1A geranylgeranylation in human cancer cells was determined next. To this end, the MiaPaca pancreatic cancer cell line and 2 breast cancer cell lines (MDA-MB-468 and MDA-MB-231) were treated with various concentration of the dual inhibitor FGTI-2734, the GGT-1 inhibitor GGTI-2418 or the FT inhibitor FTI-2153 and processed for Western blotting.
Testing has shown that the dual farnesyltransferase and geranygeranyltransferase-I inhibitors are effective on pancreatic tumors (90% of all cases), colonic tumors (30% of all cases), lung tumors (30% of all cases), and breast tumors (10% of all cases). NIH-3T3 cells that overexpress oncogenic mutant K-Ras, seen in FIG. 14, and MDA-MB-231 breast cancer cells with a naturally occurring K-Ras mutation, seen in FIG. 15, were treated with indicated concentrations of FGTI-2734, GGTI-2417 or FTI-2153. FGTI-2734 but not FTI-2153 or GGTI-2417 inhibited K-Ras prenylation. As expected, GGTI-2417 inhibited the processing of Rap1 but not HDJ-2 whereas FTI-2153 inhibited the processing of HDJ-2 but not Rap1.
Mammalian target of rapamycin (mTOR) is a serine/threonine phosphatidylinositol 3-kinase-related kinase responsible for cell growth, proliferation, cell survival, protein synthesis, and transcription. […]

[1] = tested on: mTOR signaling pathway (pS6); test: Western blot of pS6 (ser240/244), mTOR pathway signaling; assay type: cell-based, human; details: two breast adenocarcinoma and a pancreatic carcinoma cell line; FIG. 16
Excerpt: as §1

MDA-MB-231 = test: MTT proliferation/viability assay; assay type: cell-based; details: Homo sapiens, MDA-MB-231, MDA-MB-231, breast
Procedure: (§2) To determine if FGTI-2734 is more efficacious than FT or GGT-1 inhibitors, 10 human cancer pancreatic cell lines, 2 human breast cancer cell lines, 2 human lung cancer cell lines and one human prostate cancer cell line were treated with these inhibitors and determined their effects on the proliferation of these cells by MTT assay.

NCI-H460 = test: MTT proliferation/viability assay; assay type: cell-based; details: Homo sapiens, NCI-H460, lung
Procedure: as §2

hFTase = hFTase (Homo sapiens, UniProt P49354+P49356); test: In vitro hFTase inhibition: incorporation of [3H]FPP into recombinant H-Ras-CVLS; assay type: biochemical
SW1990 = test: MTT proliferation/viability assay; assay type: cell-based, human
Procedure: as §2

MiaPaca = test: MTT proliferation/viability assay; assay type: cell-based, human; details: Homo sapiens, MIA PaCa-2, pancreas
Procedure: as §2

BxPC3 = test: MTT proliferation/viability assay; assay type: cell-based, human
Procedure: as §2

A549 = test: MTT proliferation/viability assay; assay type: cell-based, human; details: Homo sapiens, A549, lung
Procedure: as §2

Capan-2 = test: MTT proliferation/viability assay; assay type: cell-based, human
Procedure: as §2

ASPC-1 = test: MTT proliferation/viability assay; assay type: cell-based, human
Procedure: as §2

HPNE = test: MTT proliferation/viability assay; assay type: cell-based, human; details: Homo sapiens, pancreas
Procedure: as §2

HPNE-K-ras = test: MTT proliferation/viability assay; assay type: cell-based, human; details: Homo sapiens, pancreas
Procedure: as §2

Panc-1 = test: MTT proliferation/viability assay; assay type: cell-based, human; details: Homo sapiens, Panc-1, pancreas
Procedure: as §2

HPDE-C7 = test: MTT proliferation/viability assay; assay type: cell-based, human; details: Homo sapiens, HPDE-C7, pancreas
Procedure: as §2

HPDE-C7-Kras = test: MTT proliferation/viability assay; assay type: cell-based, human; details: pancreas
Procedure: as §2

MCF-7 = test: MTT proliferation/viability assay; assay type: cell-based, human; details: Homo sapiens, MCF7, MCF-7, breast
Procedure: as §2

DU-145 = test: MTT proliferation/viability assay; assay type: cell-based, human; details: Homo sapiens, DU-145, DU-145, prostate
Procedure: as §2

## Cn1cncc1CN(CCN(CC1CCCCC1)S(=O)(=O)c1ccccn1)c1ccc(C#N)cc1F [21b, N-(2-((4-cyano-2-fluorophenyl)((1-methyl-1H-imidazol-5-yl)methyl)amino)ethyl)-N-(cyclohexylmethyl)pyridine-2-sulfonamide]
survivin; FIG. 18
  survivin protein levels: reduces
survivin; FIG. 18 (PARP)
  apoptosis: induces apoptosis
HDJ-2 farnesylation
  inhibition of HDJ-2 farnesylation: inhibited
[1]
  mTOR pathway signaling, levels of pS6: reducing the levels of pS6
MDA-MB-231
  IC50: 12.2 ± 0.97 µM
NCI-H460
  IC50: 7.19 ± 1.18 µM
hFTase; GGTase-I IC50 / hFTase IC50
  selectivity (ratio of GGTase-I to FTase IC50s): 2.1
hFTase; in vitro, average of three independent assays (n = 3) unless stated, errors are standard deviations
  IC50: 0.25 ± 0.19 µM
SW1990; Homo sapiens, SW1990, SW1990, pancreas
  IC50: 26.3 µM
SW1990; SW1990, pancreas, listed as FGTI-2734
  IC50: 24.2 µM
MiaPaca
  IC50: 2.65 ± 0.3 µM
BxPC3; BxPC3, pancreas, listed as FGTI-2734
  IC50: 17.8 µM
BxPC3; Homo sapiens, BXPC-3, BxPC3, pancreas
  IC50: 17.2 µM
A549
  IC50: 13.2 ± 3.64 µM
Capan-2; Capan-2, pancreas, listed as FGTI-2734
  IC50: 30 µM
Capan-2; Homo sapiens, Capan-2, Capan-2, pancreas
  IC50: 24 µM
ASPC-1; ASPC-1, pancreas, listed as FGTI-2734
  IC50: 12.6 µM
ASPC-1; Homo sapiens, ASPC1, ASPC-1, pancreas
  IC50: 11.2 µM
HPNE
  IC50: 13.5 ± 1.72 µM
HPNE-K-ras
  IC50: 14.7 ± 0.89 µM
Panc-1
  IC50: 20.5 ± 3.18 µM
HPDE-C7
  IC50: 7.5 µM
HPDE-C7-Kras; Homo sapiens
  IC50: 6.6 µM
HPDE-C7-Kras; listed as FGTI-2734
  IC50: 8.7 µM
MCF-7
  IC50: 4.42 ± 0.92 µM
DU-145
  IC50: 11.2 ± 6.09 µM
